PMC3109985 (Organic letters, 2011)
Where two headings read alike, the source gives them in different places.

Tests used:
[1] = system: HIV-1 NL4-3; test: Anti-HIV assay: HIV-1 NL4-3 replication in MT4 cells, p24 ELISA; format: cell-based
[2] = Cytotoxicity to MT4 cells, CellTiter-Glo Luminescent Cell Viability Assay; format: cell-based; settings: human
[3] = Human immunodeficiency virus 1, NL43, MT4, 96 h, read-out: anti-HIV (NL4-3) EC90
[4] = read-out: anti-HIV (NL4-3) EC90, concentration that inhibited HIV-1 replication by 90%, MT4 cells, 4-day post infection, p24 ELISA

Row | Molecule | EC90 [1, 3] [nM] | EC90 ([1]; Human immunodeficiency virus 1, NL43, MT4, read-out: anti-HIV EC90) [nM] | IC50 [2] [nM] | EC90 [1, 4] [nM]
1 | C=C(C)[C@@]12C[C@@H](COC(=O)c3ccccc3)[C@@]34OC5(O[C@@H]1[C@@H]3[C@@H]1O[C@]1(CO)[C@@H](O)[C@@]1(O)[C@H]4[C@H]([C@H](C)[C@@H]1OC(=O)c1ccccc1)[C@H](C)CCCCCC[C@H]5O)O2 [Compound 1, gnidimacrin] | 0.41 | < 1 | 2800 | 
2 | C=C(C)[C@]12C[C@@H](C)[C@@]34OC5(CCCCCCC[C@H](C)[C@H]6[C@H](C)[C@H](OC(=O)c7ccccc7)[C@@](O)([C@H](O)[C@@]7(CO)O[C@H]7[C@H]3[C@H]1O5)[C@@H]64)O2 [Compound 2, pimelea factor P2] | 1.4 |  | 3200 | 
3 | C=C(C)[C@]12C[C@@H](COC(=O)c3ccccc3)[C@@]34OC5(CCCCCCC[C@@H](C)[C@H]6[C@H](C)C(=O)[C@@](O)([C@H](O)[C@@]7(CO)O[C@H]7[C@H]3[C@H]1O5)[C@@H]64)O2 [Compound 3, wikstroelide F] |  |  |  | 1.7
4 | C=C(C)[C@]12C[C@@H](COC(C)=O)[C@@]34O[C@]5(O[C@@H]1[C@@H]3[C@@H]1O[C@]1(CO)[C@@H](O)[C@@]1(O)[C@H]4[C@H]([C@H](C)[C@@H]1OC(=O)c1ccccc1)[C@H](C)CCCCCC[C@H]5O)O2 [Compound 4, Stelleralide A] |  |  |  | 0.4
5 | C=C(C)[C@]12C[C@@H](COC(=O)c3ccccc3)[C@]34OC5(CCCCCCC[C@H](C)[C@@H]6[C@@H]3[C@]3(O[C@]6(C)OC3=O)[C@H](O)[C@@]3(CO)O[C@H]3[C@H]4[C@H]1O5)O2 [Compound 6, Stelleralide C] |  |  |  | 91
6 | C=C(C)[C@]12C[C@@H](C)[C@@]34O[C@](CCCCCCCCC)(O[C@@H]1[C@@H]3[C@@H]1O[C@]1(CO)[C@@H](O)[C@]1(O)C(=O)C(C)=C[C@H]14)O2 [Compound 7, simplexin] | 8 |  | 22500 | 
7 | C=C(C)[C@]12C[C@@H](C)[C@@]34O[C@](/C=C/C=C/CCCCCCCCC)(O[C@@H]1[C@@H]3[C@@H]1O[C@]1(CO)[C@@H](O)[C@]1(O)C(=O)C(C)=C[C@H]14)O2 [Compound 8, huratoxin] |  |  |  | 5.8
8 | Stelleralide B [Compound 5] |  |  |  | 1.6
